Measured values published in patent US8846761B2, “Method for treating pancreatitis” (Michigan Life Therapeutics, LLC, priority 2010, dated 2014).
Like-named read-outs stand apart in the source and are kept apart here.

Tests used:
[1] = tested on: patient with triglyceride level of 1030 mg/dl; assay: Example 5: patient with triglyceride level of 1030 mg/dl treated with gemcabene; assay type: in vivo, human; details: 300 mg once per day plus low fat diet, 12-week follow-up, initial 1030 mg/dl
Protocol: A patient, as part of a routine annual examination, has blood tests which reveal that the patient has an LDL-C level of 200 mg/dl and a triglyceride level of 1030 mg/dl. This high triglyceride level places them at high risk for developing pancreatitis. According to the […] guidelines, the patient's treatment is initially targeted to address the high triglyceride level. The patient is administered gemcabene at a dose of 300 mg once per day and is placed on a low fat diet.

[2] = tested on: patients having triglyceride levels ≧200 mg/dL; details: data reported in Bays et al., cited from earlier work
[3] = tested on: patients having TG levels >500 mg/dL; assay: Randomized, double-blind, placebo-controlled study of gemcabene, subset of patients entering with TG >500 mg/dL; assay type: in vivo, human; details: for ApoA-I average % increase / ApoB average % decrease / ApoC-III average % decrease / HDL-C average % increase / VLDL-C average % decrease / hs-CRP average % decrease / Triglycerides average % decrease: patients TG >500 mg/dL; for Triglycerides average % decrease: once daily for 12 weeks, serum, change from baseline
Protocol: A randomized, double-blind, placebo-controlled study was conducted to evaluate the efficacy and tolerability of gemcabene in patients with HDL cholesterol levels <35 mg/dL. Patients were stratified based on whether mean serum triglyceride (TG) levels were <200 mg/dL or ≧200 mg/dL. Within each TG stratum, patients were randomized to receive either 150, 300, 600 or 900 mg of gemcabene, or placebo, once daily for 12 weeks.
Patients were evaluated for percent change from baseline levels of serum HDL cholesterol, serum LDL cholesterol, TG, apolipoproteins A-I, A-II, B, C-III, and E, hs CRP and non-HDL cholesterol levels. Blood samples were measured at screening, randomization and at −8, −4, −2 weeks, baseline, and 2, 4, and 12 weeks after the start of study medication. In addition, HDL-C, LDL-C and TG levels were measured at 2 and 4 weeks before starting study medication. Bays H. E. et al. Am J Cardiol (2003) vol.
When the data were examined for the subset of patients entering the study having TG levels greater than 500 mg/dL, an unexpectedly large decrease in TG levels for those patients treated with gemcabene was seen as compared with the broader group of patients having triglyceride levels ≧200 mg/dL. Twenty-seven patients having TG levels >500 mg/dL were evaluated in the study.
FIGS. 2a-e, 3a-e, 4a-e, 5a-e, 6a-e, 7a-e and 8a-e are graphs illustrating the serum levels of TG, HDL-C, ApoA-I, ApoC-III, VLDL-C, hs CRP, and ApoB for individual patients at baseline and at 12 weeks post treatment with doses of 150, 300, 600, and 900 mg/day of gemcabene, or placebo.
Tables 1-7 provide the data expressed as average percent and mean percent decrease or increase, as appropriate, for each of these parameters at each of the doses tested.

CYP3A4 [4] = biological target: T1, CYP3A4 (Homo sapiens, UniProt P08684); details: cited from earlier work
CYP3A4 [5] = biological target: T1, CYP3A4; details: simvastatin (a CYP3A4 substrate); cited from earlier work

T1 sequence (P08684 whole entry): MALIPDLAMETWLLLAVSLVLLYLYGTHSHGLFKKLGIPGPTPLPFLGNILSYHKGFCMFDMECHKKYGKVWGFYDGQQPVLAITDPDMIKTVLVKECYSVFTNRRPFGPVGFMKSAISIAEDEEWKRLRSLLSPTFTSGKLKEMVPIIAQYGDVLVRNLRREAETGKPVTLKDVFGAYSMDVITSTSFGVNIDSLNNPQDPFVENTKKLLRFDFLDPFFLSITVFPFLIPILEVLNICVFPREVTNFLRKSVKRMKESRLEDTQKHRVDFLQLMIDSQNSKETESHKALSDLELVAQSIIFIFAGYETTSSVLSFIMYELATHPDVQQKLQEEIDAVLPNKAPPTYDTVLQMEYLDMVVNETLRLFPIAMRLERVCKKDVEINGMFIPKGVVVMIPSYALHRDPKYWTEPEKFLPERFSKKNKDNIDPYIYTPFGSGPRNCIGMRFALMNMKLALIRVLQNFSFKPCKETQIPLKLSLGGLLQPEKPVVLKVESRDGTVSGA

In the case of `CC(C)(CCCCOCCCCC(C)(C)C(=O)O)C(=O)O` [Gemcabene, 6,6′-oxybis-(2,2′-dimethylhexanoic acid)], the “triglyceride level at follow-up” value [1] is listed as 363 mg/dL, the “reduction in triglyceride levels” value ([2]; 150 mg dose) is listed as 26.6% and the “reduction in triglyceride levels” value ([2]; 300 mg dose) is listed as 38.9%. The “ApoA-I average % increase” value ([3]; 150 mg/day, 12 weeks) was 9.27%, the “ApoB average % decrease” value ([3]; 150 mg/day, 12 weeks) was −16.15% and the “ApoC-III average % decrease” value ([3]; 150 mg/day, 12 weeks) was 36.95%. The “HDL-C average % increase” value ([3]; 150 mg/day, 12 weeks) was 32.59%, the “VLDL-C average % decrease” value ([3]; 150 mg/day, 12 weeks) was 48.50% and the “hs-CRP average % decrease” value ([3]; 150 mg/day, 12 weeks) was −4.02%. The “Triglycerides average % decrease” value ([3]; 150 mg/day) was 52.09%, the “Triglycerides average % decrease” value ([3]; 150 mg/day, listed as gemcabene) was 52% and the “ApoA-I average % increase” value ([3]; 300 mg/day, 12 weeks) was −6.17%. The “ApoB average % decrease” value ([3]; 300 mg/day, 12 weeks) was 1.25%, the “ApoC-III average % decrease” value ([3]; 300 mg/day, 12 weeks) was 49.41% and the “HDL-C average % increase” value ([3]; 300 mg/day, 12 weeks) was 11.69%. For the same compound, the “VLDL-C average % decrease” value ([3]; 300 mg/day, 12 weeks) was 51.86%, the “hs-CRP average % decrease” value ([3]; 300 mg/day, 12 weeks) was −429.19% and the “Triglycerides average % decrease” value ([3]; 300 mg/day) was 61.18%. The “Triglycerides average % decrease” value ([3]; 300 mg/day, listed as gemcabene) was 61%, the “ApoA-I average % increase” value ([3]; 600 mg/day, 12 weeks) was −3.31% and the “ApoB average % decrease” value ([3]; 600 mg/day, 12 weeks) was −3.70%. For the same compound, the “ApoC-III average % decrease” value ([3]; 600 mg/day, 12 weeks) was 30.89%, the “HDL-C average % increase” value ([3]; 600 mg/day, 12 weeks) was −4.02% and the “VLDL-C average % decrease” value ([3]; 600 mg/day, 12 weeks) was 28.73%. The “hs-CRP average % decrease” value ([3]; 600 mg/day, 12 weeks) was 33.50%, the “Triglycerides average % decrease” value ([3]; 600 mg/day) was 36.44% and the “ApoA-I average % increase” value ([3]; 900 mg/day, 12 weeks) was 0.47%. The “ApoB average % decrease” value ([3]; 900 mg/day, 12 weeks) was 2.26%, the “ApoC-III average % decrease” value ([3]; 900 mg/day, 12 weeks) was 20.36% and the “HDL-C average % increase” value ([3]; 900 mg/day, 12 weeks) was 1.03%. For the same compound, the “VLDL-C average % decrease” value ([3]; 900 mg/day, 12 weeks) was 17.10%, the “hs-CRP average % decrease” value ([3]; 900 mg/day, 12 weeks) was 66.64% and the “Triglycerides average % decrease” value ([3]; 900 mg/day) was 0.90%. The “increase in HDL-C levels” value ([3]; one patient (FIG. 1), 150 mg/day, 12 weeks) was 27%, the “serum triglyceride level after treatment” value ([3]; one patient (FIG. 1), 150 mg/day, 12 weeks post-treatment, TG 550 mg/dL at initiation) was 210 mg/dL and the “fall in triglyceride level” value ([3]; one patient (FIG. 1), 150 mg/day, 12 weeks, TG 550 mg/dL at initiation) was 62%. For the same compound, the “inhibition of CYP3A4” value (CYP3A4 [4]) was “low level of inhibition” and the “effect in drug-drug interaction study with simvastatin” value (CYP3A4 [5]) was “no clinically relevant effect”.
